In the assay the target is bNOS (UniProt P29475). Kind of assay: bNOS inhibition (method of Bredt and Snyder). Type of assay: biochemical. An excerpt:
The NOS-inhibitory action of the compounds of Formula (I) and their physiologically compatible salts can be determined according to the methods by Bredt and Snyder in Proc. Natl. Acad. Sci. USA (1989) 86, 9030–9033.

Counter-ions that a name gives are not always drawn.

A word on the IC50: it is the midpoint of a concentration-inhibition curve.

In turn, `NC1=Nc2cc(CCNCc3cccc(Cl)c3)c(Cl)cc2C2CCCC12` (stereo not shown) [Example 8, 4-Amino-8-chloro-7-(3-chlorobenzylamino)ethyl-2,3,3a,9b-tetrahydro-1H-cyclopenta[c]quinoline Dihydrochloride] registered an IC50 of 190 nM.

(Values after US7067667B2, “Aminoalkyl-3, 4-dihydroquinoline derivatives as no-synthase inhibitors” (Schering Aktiengesellschaft, priority 1998, dated 2006).)
